Patent US20180319865A1, “Identification of Novel Small Molecule Beta2 Integrin Agonists” (Rush University Medical Center, priority 2016, published 2018)

Experiments:
[1] = molecular target: T1, mutant integrin CD11bE320A/CD18 (Homo sapiens, UniProt P11215, E336A); assay: HTS cell adhesion assay, K562 E320A cells on immobilized fibrinogen; assay type: cell-based; conditions: Table 3, adhesion to fibrinogen, five point dose-response
T1 construct: expressed in transfected cells; host or cells: K562 (ATCC)
Description: K562 cells stably expressing CD11c/CD18 (K562 CD11c/CD18) were generated similarly. […] K562 cells stably transfected with mutant integrin CD11bE320A/CD18 (K562 E320A) were generated according to literature protocols. All cell lines were maintained in Iscove's Modified Dulbecco's Medium (IMDM) supplemented with 10% heat-inactivated fetal bovine serum, 50 IU/mL penicillin and streptomycin and 0.5 mg/mL G418.
(§1) Cell adhesion assays with immobilized ligands were performed using the general protocol previously described and as illustrated in FIG. 1 [33]. Assays with all different K562 cell lines (K562, K562 CD11b/CD18, K562 CD11c/CD18 and K562 E320A) were performed in an identical fashion. Briefly, 384-well microplates (Corning 3700) were coated with 15 μg/mL fibrinogen (Fg) ligand in PBS^++ overnight at 4° C. At the same time, anti-CD18 (IB4) mAb was also coated. Subsequently, the coated wells were washed with 1% nonfat milk in TBS at room temperature for 1 hour. Next, the wells were washed 3 times with TBS, and the coated microplates were used in the HTS assays.
(§2) K562 CD11b/CD18, K562 CD11bE320A/CD18 and K562 CD11c/CD18 cells were washed with TBS, and cells were transferred to the Fg-coated wells of microplates in the assay buffer (Ca^2+ and Mg^2+ for physiological condition, Mn^2+ as the Positive control). A 1 μL aliquot of the compounds were transferred to each washed well with multichannel pipet from the 384-well plates.
(§3) The assay plates were incubated at 37° C. in the presence of small-molecule compounds for 30 min. To dislodge the non-adherent cell, the assay plates were gently inverted and kept in inverted position for 20 min at room temperature.
(§4) The cells were fixed with 37% formaldehyde in a small volume and the plates were kept inverted for 1 h. Upon the fixation, the solutions in the well were discarded. Next, the cells were fluorescently labeled with DAPI (0.5 μM final in TBS with 0.1% Triton X-100) and the quantitated with “Opera High Content Screening System” (Perkin Elmer).
(§5) Cell-adhesion under positive and negative control conditions was used to define the activity scale; signal corresponding to the number of non-small molecule treated cells adherent in activating buffer condition (in the presence of Mn^2+ ions as agonist, PC) was considered maximum (100% binding) and the signal corresponding to the number of non-small molecule treated cells adherent in basal buffer condition (in the presence of 1 mM each of Ca^2+ and Mg^2+, NC) was considered minimum (0% binding).

integrin CD11c/CD18 = molecular target: T2, integrin CD11c/CD18 (Homo sapiens, UniProt P20702); assay: HTS cell adhesion assay, K562 CD11c/CD18 cells on immobilized fibrinogen; assay type: cell-based; conditions: for EC50 CD11c/CD18: Table 3, K562 CD11c/CD18 cells, adhesion to fibrinogen, dose-response
T2 construct: expressed in transfected cells; host or cells: K562 (ATCC)
Description: K562 cells stably expressing CD11c/CD18 (K562 CD11c/CD18) were generated similarly. Mutant CD11bE320A has been described previously. K562 cells stably transfected with mutant integrin CD11bE320A/CD18 (K562 E320A) were generated according to literature protocols. All cell lines were maintained in Iscove's Modified Dulbecco's Medium (IMDM) supplemented with 10% heat-inactivated fetal bovine serum, 50 IU/mL penicillin and streptomycin and 0.5 mg/mL G418.
as §1, §2, §3, §4
as §5, with “binding). […]” for “binding).”
The compounds were diluted in DMSO by the final concentration 10 μM, 5 μM, 2.5 μM, 1.25 μM and 0.625 μM and stocked as sealed in 384-well plates at −80° C.

T2 sequence (P20702 with tags, fused parts or gaps): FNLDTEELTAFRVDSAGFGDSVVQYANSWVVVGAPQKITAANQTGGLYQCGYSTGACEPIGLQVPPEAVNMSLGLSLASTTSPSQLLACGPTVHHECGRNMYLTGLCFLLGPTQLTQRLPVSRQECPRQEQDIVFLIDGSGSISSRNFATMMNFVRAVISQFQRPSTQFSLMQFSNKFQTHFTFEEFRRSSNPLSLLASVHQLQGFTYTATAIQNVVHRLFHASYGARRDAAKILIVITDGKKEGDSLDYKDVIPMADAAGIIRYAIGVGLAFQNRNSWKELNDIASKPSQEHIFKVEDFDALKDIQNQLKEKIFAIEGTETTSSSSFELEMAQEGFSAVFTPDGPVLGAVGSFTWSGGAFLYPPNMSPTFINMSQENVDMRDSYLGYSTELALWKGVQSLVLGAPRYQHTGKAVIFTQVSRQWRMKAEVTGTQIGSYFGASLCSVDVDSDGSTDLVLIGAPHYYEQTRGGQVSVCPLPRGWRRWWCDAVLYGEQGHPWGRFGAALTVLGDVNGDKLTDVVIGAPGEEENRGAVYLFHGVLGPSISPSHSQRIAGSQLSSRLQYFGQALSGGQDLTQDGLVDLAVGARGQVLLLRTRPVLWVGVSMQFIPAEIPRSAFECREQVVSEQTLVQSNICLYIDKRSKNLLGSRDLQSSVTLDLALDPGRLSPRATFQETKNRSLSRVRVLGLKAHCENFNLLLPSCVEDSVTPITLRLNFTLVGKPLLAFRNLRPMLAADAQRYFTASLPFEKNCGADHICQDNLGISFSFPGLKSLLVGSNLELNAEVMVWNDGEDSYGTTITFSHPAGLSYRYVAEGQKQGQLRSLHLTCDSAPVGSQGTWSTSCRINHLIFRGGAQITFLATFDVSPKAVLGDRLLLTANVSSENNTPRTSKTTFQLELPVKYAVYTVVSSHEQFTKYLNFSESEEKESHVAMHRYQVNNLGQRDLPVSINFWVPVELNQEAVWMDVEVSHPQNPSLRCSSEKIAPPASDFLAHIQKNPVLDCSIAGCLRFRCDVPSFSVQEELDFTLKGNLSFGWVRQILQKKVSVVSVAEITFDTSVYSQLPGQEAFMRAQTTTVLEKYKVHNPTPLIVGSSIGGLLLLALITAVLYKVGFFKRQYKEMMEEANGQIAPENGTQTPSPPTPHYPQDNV
T2 sequence (P05107 23-769 partner): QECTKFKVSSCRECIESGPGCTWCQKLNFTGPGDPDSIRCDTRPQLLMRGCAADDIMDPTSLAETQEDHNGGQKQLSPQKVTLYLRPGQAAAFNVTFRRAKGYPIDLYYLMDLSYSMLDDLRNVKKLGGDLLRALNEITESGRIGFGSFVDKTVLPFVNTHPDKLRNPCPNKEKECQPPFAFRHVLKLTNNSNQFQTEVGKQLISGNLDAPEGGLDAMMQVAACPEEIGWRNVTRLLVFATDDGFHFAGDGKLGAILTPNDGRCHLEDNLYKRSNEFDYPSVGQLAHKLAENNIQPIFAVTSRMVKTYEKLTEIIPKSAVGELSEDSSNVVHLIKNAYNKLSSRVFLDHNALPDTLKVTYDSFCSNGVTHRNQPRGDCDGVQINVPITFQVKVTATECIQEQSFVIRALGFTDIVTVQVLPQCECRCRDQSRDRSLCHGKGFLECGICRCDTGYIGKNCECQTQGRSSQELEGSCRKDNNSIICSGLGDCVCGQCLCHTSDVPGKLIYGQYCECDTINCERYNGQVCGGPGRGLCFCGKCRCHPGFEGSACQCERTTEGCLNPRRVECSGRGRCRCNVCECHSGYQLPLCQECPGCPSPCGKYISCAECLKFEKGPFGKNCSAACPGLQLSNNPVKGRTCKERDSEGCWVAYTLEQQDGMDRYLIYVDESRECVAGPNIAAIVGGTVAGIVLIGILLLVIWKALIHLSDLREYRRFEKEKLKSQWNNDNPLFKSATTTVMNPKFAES
T1 sequence (P11215 17-1152 E336A): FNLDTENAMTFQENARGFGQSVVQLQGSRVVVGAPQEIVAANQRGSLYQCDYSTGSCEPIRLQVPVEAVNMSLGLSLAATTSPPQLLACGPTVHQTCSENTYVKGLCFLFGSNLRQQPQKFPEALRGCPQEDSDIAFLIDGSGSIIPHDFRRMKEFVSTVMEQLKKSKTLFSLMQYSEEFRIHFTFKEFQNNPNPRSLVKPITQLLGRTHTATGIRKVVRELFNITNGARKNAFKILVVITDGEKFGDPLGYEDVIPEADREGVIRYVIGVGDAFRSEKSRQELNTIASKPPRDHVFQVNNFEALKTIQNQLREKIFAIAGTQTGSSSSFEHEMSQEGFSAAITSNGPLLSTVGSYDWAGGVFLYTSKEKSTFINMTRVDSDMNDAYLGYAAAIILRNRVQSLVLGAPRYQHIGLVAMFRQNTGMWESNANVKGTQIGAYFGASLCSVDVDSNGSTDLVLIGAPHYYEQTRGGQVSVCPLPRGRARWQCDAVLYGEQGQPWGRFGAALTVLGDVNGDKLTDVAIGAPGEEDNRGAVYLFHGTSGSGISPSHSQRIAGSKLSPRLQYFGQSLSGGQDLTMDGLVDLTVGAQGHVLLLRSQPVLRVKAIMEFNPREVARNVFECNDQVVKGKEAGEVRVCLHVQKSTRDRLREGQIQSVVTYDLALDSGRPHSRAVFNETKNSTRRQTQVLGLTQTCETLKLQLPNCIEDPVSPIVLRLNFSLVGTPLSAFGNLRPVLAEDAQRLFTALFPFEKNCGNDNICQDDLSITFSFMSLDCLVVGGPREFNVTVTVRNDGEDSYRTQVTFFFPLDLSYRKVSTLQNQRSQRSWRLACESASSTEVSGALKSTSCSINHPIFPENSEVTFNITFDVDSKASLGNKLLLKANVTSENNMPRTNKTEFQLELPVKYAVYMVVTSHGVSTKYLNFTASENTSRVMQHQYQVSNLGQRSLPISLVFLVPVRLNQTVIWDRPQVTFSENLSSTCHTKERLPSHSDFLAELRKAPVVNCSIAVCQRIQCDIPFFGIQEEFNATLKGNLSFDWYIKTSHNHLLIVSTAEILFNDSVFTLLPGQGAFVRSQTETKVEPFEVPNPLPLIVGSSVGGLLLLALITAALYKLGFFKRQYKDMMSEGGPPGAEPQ
T1 sequence (P05107 23-769 partner): as the sequence (P05107 23-769 partner) above

Row | Structure (SMILES) | EC50 [1] [µM] | EC50 (integrin CD11c/CD18) [µM] | EC50 CD11c/CD18 (integrin CD11c/CD18) | EC50 E320A [1]
1 | CCOc1ccc(/C=c2\sc3nc(-c4ccco4)nn3c2=O)cc1OCC [Compound 2144321] | 6.49 | 5.07 | – | –
2 | CSc1nc(N(CCO)CCO)c2sc3nc(-c4ccco4)c4c(c3c2n1)CCC4 [Compound 665142] | 4.92 | 2.63 | – | –
3 | Cn1c(C(=O)NCCN2CCc3ccccc3C2)cc2c(=O)n(C)c3ccccc3c21 [Compound 5309909] | 259 | – | Infinite | –
4 | COc1ccccc1NC(=O)c1sc2ncn(Cc3ccc(C)cc3)c(=O)c2c1C [Compound 1078286] | 6.92 | 2.5 | – | –
5 | CCc1cc(=O)oc2cc(C)c3c(C)coc3c12 [Compound 707842] | 15 | – | Infinite | –
6 | Nc1c(C(=O)Nc2nccs2)sc2nc(-c3cccs3)cc(C(F)(F)F)c12 [Compound 2252798] | 4.1 | 4.06 | – | –
7 | CCOC(=O)c1c(NC(=O)c2cc(-c3ccc(Cl)s3)nc3ccccc23)sc(C(N)=O)c1C [Compound 2163411] | 6.56 | 1.77 | – | –
8 | COc1ccc(-c2nnn(CC(=O)Nc3sc4c(c3C#N)CCCC4)n2)cc1 [Compound 652695] | 4.86 | 4.61 | – | –
9 | Cc1onc(-c2c(Cl)cccc2Cl)c1C(=O)NC(=S)Nc1sc2c(c1C(N)=O)CCC(C)C2 (centres unmarked) [Compound 3466680] | 5.99 | 6.26 | – | –
10 | COC(=O)c1[nH]c2ccc(C)cc2c1NC(=O)CN1CCCc2ccccc21 [Compound 658948] | 0.994 | 0.564 | – | –
11 | CC(C)CNC(=O)c1c(N)n(/N=C/c2ccccn2)c2nc3ccccc3nc12 [Compound 9568664] | 6.19 | 3.73 | – | –
12 | O=C(Oc1ccc2c(=O)c(Oc3ccc4ccccc4c3)coc2c1)c1cncc(Br)c1 [Compound 1045434] | 9.84 | – | Infinite | –
13 | Cc1ccc(CCN2CC(C(=O)NCCCN3CCCCCC3)CC2=O)cc1 (centres unmarked) [Compound 3237466] | 3.69 | 1.35 | – | –
14 | Cc1ccc(C)c(NC(=S)NC(NC(=O)Cc2cccc3ccccc23)C(Cl)(Cl)Cl)c1 (centres unmarked) [Compound 2831455] | 5.08 | 6.87 | – | –
15 | O=C1Nc2ccccc2SC(c2ccccc2)C1O (centres unmarked) [Compound 3242458] | 2.83 | 1.89 | – | –
16 | COc1ccc2cc3cc(C(=O)Nc4ccc5c(c4)OCCO5)oc3nc2c1 [Compound 3241193] | 1.28 | 0.691 | – | –
17 | CCC(=O)Nc1c(C#N)c2nc3ccccc3nc2n1C1CCCCC1 [Compound 658936] | 0.209 | – | 1.669 (Reverse) | –
18 | Cc1ccc(/C=C/C(=O)Nc2ccc([N+](=O)[O-])c(NC(=O)/C=C/c3ccc(C)o3)c2)o1 [Compound 5736971] | 6.55 | 4.5 | – | –
19 | O=C(Nc1ccc(N2CCN(c3ccc(O)cc3)CC2)cc1)Oc1ccccc1 [Compound 1317528] | 3.62 | 2.14 | – | –
20 | COc1cc(/C=C2\SC(N)=NC2=O)ccc1OCC(=O)Nc1ccc(C)cc1 [Compound 1308620] | 3.3 | 6.27 | – | –
21 | O=C(Nc1nccs1)c1cccc(N2C(=O)c3cccc4c([N+](=O)[O-])ccc(c34)C2=O)c1 [Compound 2254616] | 4.43 | 1.87 | – | –
22 | COc1ccc2nc(SCC(=O)Nc3ccc4sc(C)nc4c3)c(C#N)cc2c1 [Compound 1164441] | 4 | 2.77 | – | –
23 | CC(C)c1nc2sc3c(SCC(=O)NCc4ccco4)ncnc3c2c2c1CCC2 [Compound 664182] | 4.24 | 3.78 | – | –
24 | Cc1nc(C)c(C(=O)Nc2nc3c(C)cccc3s2)o1 [Compound 3244965] | 4.91 | 4.03 | – | –
25 | Cc1ccc2sc(-c3ccc(NC(=O)c4cc(-n5cnnc5)ccc4Cl)cc3)nc2c1 [Compound 1017701] | 8.11 | 2.72 | – | –
26 | COC(=O)c1[nH]c2ccccc2c1NC(=O)CN1CCCc2ccccc21 [Compound 658682] | 1.6 | 0.621 | – | –

Row | Structure (SMILES) | EC50 [1] [µM] | EC50 (integrin CD11c/CD18) [µM] | EC50 CD11c/CD18 (integrin CD11c/CD18) | EC50 E320A [1]
27 | CC(=O)c1ccc(NC(=O)c2ccc3nc(-c4ccco4)c(-c4ccco4)nc3c2)cc1 [Compound 1331726] | 2.46 | 2.64 | – | –
28 | Cc1ccc2nc(-c3ccc(NC(=O)CCS(=O)(=O)c4ccccc4)cc3)sc2c1 [Compound 12005977] | 6.72 | 5.05 | – | –
29 | O=C(ONc1ccc(N=NC(=O)c2ccccc2O)cc1)c1ccccc1 [Compound 4483668] | 5.42 | 4.64 | – | –
30 | Cc1ccc(-n2nnnc2SCC(=O)Nc2ccc3c(c2)COC3=O)cc1C [Compound 1227337] | 4.19 | 3.32 | – | –
31 | Cc1c(N2C(=O)c3ccc4c5c(ccc(c35)C2=O)CC4)c(=O)n(-c2ccccc2)n1C [Compound 1356461] | 4.02 | 2.27 | – | –
32 | O=C(CCN1C(=O)c2ccccc2C1=O)Nc1ccc(-c2nc3ccccc3o2)cc1 [Compound 1262031] | 1.6 | 7.21 | – | –
33 | O=C(Nc1ccc2oc(-c3ccccc3F)nc2c1)c1cncc(Br)c1 [Compound 1295289] | 3.62 | 2.67 | – | –
34 | COC(=O)c1ccc2c(c1)N(Cc1nc(-c3cccc(C)c3)oc1C)C(=O)C1CCCN21 (centres unmarked) [Compound 5309602] | 6.42 | 2.56 | – | –
35 | Cc1nc2c(c(=O)n1CCC1=CCCCC1)c1nc3ccccc3nc1n2/N=C/c1ccco1 [Compound 6880170] | 11.3 | – | – | –
36 | O=C(NNC(=O)c1cccc(S(=O)(=O)N2CCN(c3ccccc3)CC2)c1)c1ccc(Cl)cc1 [Compound 4412067] | 11.4 | – | – | –
37 | O=C(CSc1nc2ccccc2c2nc3ccccc3n12)NCc1ccco1 [Compound 3238872] | 19.1 | – | – | –
38 | COc1ccccc1N1CSC2=C(C#N)C(c3ccc(SC)cc3)CC(=O)N2C1 (centres unmarked) [Compound 3160888] | 11.4 | – | – | –
39 | O=C1NN(c2ccc(Cl)c(Cl)c2)C(=O)/C1=C/c1cccc(OC(=O)c2cccs2)c1 [Compound 1016780] | 7.82 | – | – | –
40 | CCOC(=O)c1[nH]c2ccc(Cl)cc2c1NC(=O)/C=C/c1ccc2c(c1)OCO2 [Compound 1973614] | 43.6 | – | – | –
41 | O=c1nc2s/c(=C\c3ccco3)c(=O)n2nc1Cc1ccc(F)cc1 [Compound 1844411] | 7.04 | – | – | –
42 | Cc1ccc(-c2cc(C(=O)N/N=C/C=C/c3ccco3)c3ccccc3n2)cc1C [Compound 1764811] | 19.3 | – | – | –
43 | CC1CCc2c(sc(NC(=O)c3ccc(Cn4cc(Br)cn4)o3)c2C(N)=O)C1 (centres unmarked) [Compound 2941732] | 35.6 | – | – | –
44 | Cc1csc(NC(=O)c2cc(-c3ccco3)nc3ccccc23)n1 [Compound 2366866] | 8.59 | – | – | –
45 | COc1cc(NC(=O)c2noc3c2CCC3)c(OC)cc1Cl [Compound 3238190] | 10.5 | – | – | –
46 | O=C(COC(=O)c1c2c(nc3ccccc13)/C(=C/c1cccc([N+](=O)[O-])c1)CCC2)NC1CCS(=O)(=O)C1 (centres unmarked) [Compound 5950432] | 9.83 | – | – | –
47 | COc1ccc(-c2cc(C(=O)OCC(=O)Nc3ccc4c(c3)OCO4)c3ccccc3n2)cc1 [Compound 2338283] | – | – | – | Infinite
48 | Cc1cc(/C=C2\C(=O)NC(=O)N(c3ccc(Cl)cc3)C2=O)c(C)n1-c1sc2c(c1C#N)CCCC2 [Compound 1418314] | 9.57 | – | – | –
49 | COc1cc(/C=C2/SC(=S)N(c3ccccc3)C2=O)ccc1Oc1nc(N2CCOCC2)nc(N2CCOCC2)n1 [Compound 5343920] | – | – | – | Very Low
50 | CCC(=O)Nc1ccc(C(=O)CSc2nc3ccc(C)cc3[nH]2)cc1 [Compound 2549650] | 10.3 | – | – | –
51 | Cc1cc(=O)oc2cc(OCC(=O)N/N=C/c3ccccc3[N+](=O)[O-])ccc12 [Compound 9619223] | 35.7 | – | – | –
52 | COc1ccc(-n2c(C)cc(C(=O)COC(=O)c3cc(NC(=O)c4cccs4)c(OC)c(OC)c3)c2C)cc1 [Compound 2108710] | 62.5 | – | – | –
